Assay [1] deals with HepG2 cells. Description: Protection from alcohol induced toxicity, Sulphorhodamine B assay. It counts as cell-based, Human. To be noted: alcohol 1000 mM, 72 hours. The procedure:
(§1) Human HepG2 cells (procured from NCCS, Pune) were cultured in Dulbecco's Modified Eagle Medium (DMEM) supplemented with 10% fetal bovine serum (FBS), 40 μgml^−1 gentamycin at 37° C. in an atmosphere of 5% CO2. When the cells reached 80-90% confluence, they were trypsinized and plated at 5000 cells per well in a 96-well microplate. After 24 hours of seeding, alcohol at a concentration of 1000 mM was added along with different non cytotoxic concentrations of Calebin. Sulphorhodamine B assay was performed after 72 hours of treatment to determine the number of viable cells and percentage protection was calculated (FIG. 1).

For assay [2], the system named is HepG2 cells. Description: Protection from acetaminophen (paracetamol) induced toxicity, Sulphorhodamine B assay. It is filed as cell-based, Human. To be noted: 6.25 μM, acetaminophen 4 mM, 72 hours. Here is the method: as §1, with “acetaminophen” for “alcohol”, “4” for “1000”, “2).” for “1).”
(In general: Sulforhodamine B stains cellular protein and so reports cell mass.)

The subject of assay [3] is C2C12 myotubes (muscle cells). Description: Glucose uptake assay (2-NBDG, flow cytometry) in muscle cells. It counts as cell-based. The note with it: concentration printed as 3004, versus Metformin 200 μM. Here is the method:
The skeletal muscle cell line C2C12 myoblasts (procured from ATCC) were maintained in DMEM supplemented with 10% Fetal Bovine Serum at 37° C. with 5% CO2. Twenty thousand cells per well were seeded in a 24 well plate. When the cells reached 80-90% confluence, differentiation was induced by replacing the growth medium with DMEM containing 1% horse serum. Experiments were performed in completely differentiated C2C12 myotubes after 4-5 days in differentiation medium. Cells were then treated with 0.5% BSA in low glucose media for 16 hours and washed with cold Krebs-Ringer phosphate buffer without glucose. Cells were then treated with different non cytotoxic concentrations of samples in low glucose DMEM media with or without insulin at a concentration of 0.1 μM for 30 minutes at 37° C. Cells were then washed with cold PBS and stained with 5 μM of a fluorescent D-glucose analog 2-[N-(7-nitrobenz-2-oxa-1,3-diazol-4-yl) amino]-2-deoxy-D-glucose (2-NBDG) for 15 minutes in dark followed by flow cytometric detection of fluorescence produced by the cells (FIG. 3)

The next assay concerns adipocytes. Description: Glucose uptake assay in adipocytes. It counts as cell-based. To be noted: concentration printed as 3004, versus Metformin 200 μM.

Each structure is given as a SMILES string.

As to `COc1cc(/C=C/C(=O)COC(=O)/C=C/c2ccc(O)c(OC)c2)ccc1O` [Calebin A], the “percentage protection from alcohol induced toxicity” value in the assay with HepG2 cells [1] (6.25 μM) is on record as “about 14%”; with HepG2 cells [1] (12.5 μM) it was 30%; with HepG2 cells [1] (progressively higher concentration, printed 6.25 μM), 23%. Moreover, in the assay on HepG2 cells [2], the “percentage protection against acetaminophen induced toxicity” value is given as “about 15%”. Besides, the “increase in glucose uptake” value (in assay [3]; with adipocytes) was “almost as effective as Metformin” each time.
